Measured values taken from paper PMC11173677, “Identification and Evaluation of Olive Phenolics in the Context of Amine Oxidase Enzyme Inhibition and Depression: In Silico Modelling and In Vitro Validation” (Molecules, 2024).
Each block holds one compound with its values, some of them ahead of it.

What was measured:
MAO-A [1] = test system: MAO-A; parameters: method as in PMID 30809547; details: cited from earlier work
MAO-B [2] = test system: MAO-B; parameters: method as in PMID 30809547; details: cited from earlier work
LSD1 [3] = test system: T1, LSD1; assay: LSD1 activity in nuclear extracts of BJ cells stimulated with DEX; format: cell-based, human; details: DEX 50 μM 72 h, then TCP 5 μM or OLP, HT, HTA 50 μM for 48 h
T1 construct: nuclear proteins extracted from the BJ cultures were directly assayed for LSD1 activity; endogenous in cells; host or cells: BJ human foreskin fibroblasts (nuclear extract, DEX-stimulated)
Method: Histone demethylase LSD1 activity assay
4µL of nuclear extracts containing 5µg protein was added to designated strip wells with stably
captured LSD1 substrate (H3K4me2), followed by an additional 26µL of H3K4me2 (HG3)
substrate diluted in assay buffer (HG2). In no enzyme control wells, the 4µL of nuclear
extracts was replaced with 4µL of assay buffer. Blank wells contained 30µL of assay buffer.
A standard curve was generated by adding 1µL of standard (HG4) at incrementally increasing
concentrations (0.1-10ng/µL) to 29µL of assay buffer in designated standard wells. After all
wells were loaded appropriately, the assay plate was incubated away from light at room
temperature for 60 minutes. Following incubation, contents were aspirated and wells were
washed three times with 150µL of wash buffer (HG1). 50µL of capture antibody (HG5)
diluted at a 1:1000 ratio was then added to all wells before incubating at room temperature
for 60 minutes on a rotating platform. Well contents were then aspirated and washed four
times with 150µL of wash buffer. 50µL of detection antibody (HG6) diluted at a 1:1000 ration
was then added to each well. Assay plate was then incubated for a final time at room
temperature for 30 minutes. Well contents were aspirated again, followed by six washes with
150µL wash buffer. 50µL of fluoro-developer (HG7) was then added into each well and
allowed to develop away from light for 1-5 minutes. Fluorescence was then read on a
CLARIOstar Microplate Reader (BMG Labtech, Ortenberg Germany) at Ex/Em =

MAO-A [4] = test system: T2, MAO-A; assay: MAO-A activity assay in hESC-derived neurons stimulated with ATRA; format: cell-based, human; details: 1 μM ATRA 24 h, then TCP 5 μM, OLC 50 μM or OLP 50 μM for 24 h
T2 construct: endogenous in cells; host or cells: BJ human foreskin fibroblasts stimulated with DEX or HC
Method: (§1) An in vitro model of MDD was designed for stem cell-derived neuronal cells through incubation of 1 μM all-trans retinoic acid (Sigma-Aldrich PHR1187, St. Louis, MO, USA). All cell treatments were conducted in duplicate and replicated using independently differentiating neuronal plates.
(§2) Activity assays were commercially sourced from BioVision (Abcam, BioVision ab241031, Waltham, MA, USA) and were performed according to manufacturer’s instructions. The treatment groups were plated in duplicate on a black, flat 96-well microplate. The cells were homogenised in assay buffer using a microtube mixer at 4 °C and centrifuged at 10,000× g for 10 min. A Bradford assay was performed to determine the total protein concentration within each cell pellet (200 μg/well for BJ cells, 40 μg/well for hESC-derived neurons). Approximately 40 μL of supernatant was loaded into wells along with 10 μL of either […], or assay buffer for total MAO activity. A H2O2 standard was pipetted as supplied and 50 μL of reaction mix was pipetted into all wells. Using a CLARIOstar Plus Microplate Reader, (BMG Labtech, Ortenberg, Germany), fluorescence was measured kinetically at 25 °C for 60 min with Ex/Em = 535/587 nm.

MAO-B [5] = test system: T3, MAO-B; assay: MAO-B activity assay in hESC-derived neurons stimulated with ATRA; format: cell-based, human; details: 1 μM ATRA 24 h, then TCP 5 μM, OLC 50 μM or OLP 50 μM for 24 h
T3 construct: endogenous in cells; host or cells: BJ human foreskin fibroblasts stimulated with DEX or HC
Method: as §1, §2

total MAO = assay: Total MAO activity assay in hESC-derived neurons stimulated with ATRA; format: cell-based, human; details: 1 μM ATRA 24 h, then TCP 5 μM, OLC 50 μM or OLP 50 μM for 24 h
Method: as §1, §2

purified LSD1 = purified LSD1 (Homo sapiens, UniProt O60341); assay: LSD1 direct screening assay (Epigentek inhibitory screening kit); format: biochemical; details: direct incubation with purified LSD1, Epigentek kit; read-out: IC50, inhibition of LSD1
Method: Fluorescence was measured using a CLARIOstar Plus Microplate Reader (BMG Labtech, Ortenberg, Germany) at excitation and emission wavelengths of 530 nm and 590 nm, respectively (Ex/Em = 530/590 nm).

LSD1 [6] = biological target: T4, LSD1 (Homo sapiens, UniProt O60341); assay: LSD1 fluorescence coupling enzyme assay (Reaction Biology Corporation); format: biochemical; details: Reaction Biology Corp., 30 min pre-incubation, 10 μM histone H3(1-21)K4me2 peptide substrate; read-out: IC50, LSD1 demethylase activity
T4 construct: Reaction Biology Corporation (performed the assay)
Method: The inhibitory activity of HCl 489479, OLC, and OLP was measured using a fluorescence coupling enzyme assay (performed by Reaction Biology Corporation). […] All compounds were pre-incubated for 30 min with the enzyme before the addition of 10 μM histone H3(1-21)K4me2 peptide substrate to start the reaction. Fluorescence was measured using an EnVision Multimode Plate Reader at Ex/Em = 535/590.

purified MAO-A = biological target: T5, purified MAO-A (Homo sapiens, UniProt P21397); assay: MAO-A direct screening assay (inhibitor screening kit); format: biochemical; details: purified enzyme; read-out: IC50, inhibition of MAO-A
T5 construct: purchased Sigma-Aldrich MAK295
T5 sequence (P21397 1-527): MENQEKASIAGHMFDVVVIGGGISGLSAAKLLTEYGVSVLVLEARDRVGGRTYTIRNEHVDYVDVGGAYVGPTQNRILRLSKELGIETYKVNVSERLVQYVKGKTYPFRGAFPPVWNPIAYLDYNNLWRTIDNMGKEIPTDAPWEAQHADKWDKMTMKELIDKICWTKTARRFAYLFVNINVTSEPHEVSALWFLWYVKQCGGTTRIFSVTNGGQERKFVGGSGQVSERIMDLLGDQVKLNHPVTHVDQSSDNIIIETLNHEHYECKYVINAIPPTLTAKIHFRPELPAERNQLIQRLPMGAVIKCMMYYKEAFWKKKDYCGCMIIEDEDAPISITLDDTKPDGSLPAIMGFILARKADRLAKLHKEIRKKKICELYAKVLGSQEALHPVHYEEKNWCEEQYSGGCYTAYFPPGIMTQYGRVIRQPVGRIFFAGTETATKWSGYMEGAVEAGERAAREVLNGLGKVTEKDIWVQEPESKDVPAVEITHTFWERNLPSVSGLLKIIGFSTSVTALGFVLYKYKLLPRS
Method: (§3) The assays were conducted for MAO-A and MAO-B according to the manufacturer’s instructions.

purified MAO-B = biological target: T6, purified MAO-B (Homo sapiens, UniProt P27338); assay: MAO-B direct screening assay (inhibitor screening kit); format: biochemical; details: purified enzyme; read-out: IC50, inhibition of MAO-B
T6 construct: purchased Sigma-Aldrich MAK296
T6 sequence (P27338 1-520): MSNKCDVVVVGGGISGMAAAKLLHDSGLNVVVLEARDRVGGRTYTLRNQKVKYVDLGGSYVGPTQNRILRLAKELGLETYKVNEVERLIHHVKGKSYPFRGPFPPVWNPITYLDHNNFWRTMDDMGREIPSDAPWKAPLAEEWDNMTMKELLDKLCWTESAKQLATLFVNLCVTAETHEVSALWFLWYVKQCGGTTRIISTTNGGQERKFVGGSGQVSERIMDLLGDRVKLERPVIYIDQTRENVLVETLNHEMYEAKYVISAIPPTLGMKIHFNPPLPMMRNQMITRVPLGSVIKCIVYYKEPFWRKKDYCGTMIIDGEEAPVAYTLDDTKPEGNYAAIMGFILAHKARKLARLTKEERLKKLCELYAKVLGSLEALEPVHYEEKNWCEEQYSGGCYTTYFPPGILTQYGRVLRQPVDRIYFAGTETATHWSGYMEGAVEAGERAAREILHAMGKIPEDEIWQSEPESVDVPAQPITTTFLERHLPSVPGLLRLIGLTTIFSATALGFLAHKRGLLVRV
Method: as §3

H3K4 mono-methylation = H3K4 mono-methylation in BJ cells (Western blotting); format: cell-based, human; details: 50 μM, 48 h, compared to untreated cells; effects more pronounced with DEX
Method: As described in the Supplementary Information, nuclear proteins extracted from the BJ cultures were directly assayed for LSD1 activity (Epigentek P-3076, Farmingdale, NY, USA). Fluorescence was read on a CLARIOstar Microplate Reader (BMG Labtech, Ortenberg, Germany) at Ex/Em = 530/590 nm (Figure S4). Histone proteins were extracted from the treated cultures and were analysed through Western blotting. The mono-methylation status of lysine on histone 3 (H3K4) was determined via immunodetection (Table S6).
100µL of Nuclear Extraction Buffer containing 0.2µL 1M DTT and 0.4µL PIC was then added to the remaining nuclei-containing pellets. Full resuspension was achieved through multiple rounds of vigorous vortexing and ice incubations (to maintain protein integrity). Once the entire pellet was visibly resuspended in NEB, tubes were centrifuged at 16,000g for 10 minutes. The resulting supernatant containing the nuclear extract fraction was transferred to clean 0.5mL tubes and stored at -80°C.
Acid extraction of histone proteins
Cells were washed in 10mL of pre-chilled PBS (1X) and detached from flask surface via mechanical disruption using a cell scraper. Cell solution was then transferred into a 15mL tube and centrifuged at 150g for 10 minutes. Supernatant was then discarded and the remaining cell pellet resuspended in 0.5mL PBS (1X) and transferred into a 1.5mL microcentrifuge tube. Cells were then centrifuged at 9400g for 20 seconds, after which the supernatant was removed and discarded. The remaining pellet was then briefly resuspended in 600µL of acid extraction lysis buffer (10mM KCl, 10mM HEPES, […]) containing cOmplete™ Mini Protease Inhibitor Cocktail (Sigma-Aldrich, Roche 11836153001, MO USA) and 0.3µL 1M DTT. This will cause cells to pre-swell, resulting in a reduced amount of PBS (1X) remaining in the microcentrifuge tube that may deter maximal cell lysis capacity. Cells were then centrifuged at 9400g for 20 seconds with the resultant supernatant aspirated and discarded. […]

MAO-A [7] = biological target: MAO-A; parameters: method as in PMID 17915852; details: read-out: inhibition constant, MAO-A; cited from earlier work
MAO-B [8] = biological target: MAO-B; parameters: method as in PMID 17915852; details: read-out: inhibition constant, MAO-B; cited from earlier work
human skin fibroblasts = test system: human skin fibroblasts; parameters: method as in PMID 37432217; details: in comparison to untreated controls, at certain doses; cited from earlier work

Compound: Oc1ccc(/C=C/c2cc(O)cc(O)c2)cc1 [resveratrol]
IC50 (MAO-A [1]): 313 nM
IC50 (MAO-B [2]): 15800 nM

Compound: N[C@@H]1C[C@H]1c1ccccc1 (racemic) [TCP, tranylcypromine, reference compound]
LSD1 activity in BJ cultures stimulated with DEX (LSD1 [3]): significant reduction
MAO-A activity in hESC-derived neurons (MAO-A [4]): significantly reduced
MAO-B activity in hESC-derived neurons (MAO-B [5]): significantly reduced
total MAO activity in hESC-derived neurons (total MAO): significantly reduced

Compound: isoeugenol
IC50 (MAO-B [2]): 102000 nM

IC50 (purified LSD1): 1100 nM
IC50 (LSD1 [6]): 31 nM
IC50 (purified MAO-A): 700 nM
IC50 (purified MAO-B): 91400 nM
Compound: CC(=O)OCCc1ccc(O)c(O)c1 [HTA, hydroxytyrosol acetate]
LSD1 activity in BJ cultures stimulated with DEX (LSD1 [3]): significant reduction
baseline levels of H3K4 mono-methylation in BJ cells (H3K4 mono-methylation): increased

Compound: O=Cc1cc(=O)oc2cc(OCc3cccc(Cl)c3)ccc12 [7-(3-chlorobenzyloxy)-4-carboxaldehyde-coumarin]
Ki (MAO-A [7]): 11000 nM
Ki (MAO-B [8]): 400 nM

Compound: COc1cc(/C=C/c2ccc(O)cc2)cc(OC)c1 [pterostilbene]
IC50 (MAO-A [1]): 13400 nM
IC50 (MAO-B [2]): 138 nM

Compound: CNCc1cc(=O)oc2cc(OCc3cccc(Cl)c3)ccc12 [7-(3-chlorobenzyloxy)-4-(methylamino)methyl-coumarin]
Ki (MAO-A [7]): 15700 nM
Ki (MAO-B [8]): 100 nM

IC50 (purified LSD1): 39 nM
IC50 (LSD1 [6]): 570 nM
IC50 (purified MAO-A): 430 nM
Compound: OCCc1ccc(O)c(O)c1 [HT, hydroxytyrosol]
LSD1 activity in BJ cultures stimulated with DEX (LSD1 [3]): significant reduction
baseline levels of H3K4 mono-methylation in BJ cells (H3K4 mono-methylation): increased
growth capacity of human skin fibroblasts (human skin fibroblasts): significantly increased
